Entries after “also recorded” stand apart in the source; their conditions may differ. Ends that are not written are not given here.
Experiments:
IL-1β promoter = IL-1β promoter (HT) luciferase gene reporter assay, transient transfection of HeLa-S3 cells with Spi-1 and C/EBPβ expression vectors; assay type: cell-based, human; details: for inhibition of cooperative transactivation of the IL-1β promoter: HT reporter with Spi-1 and C/EBP, absence of full-length IE2, titrated fragment vector, FIG. 2A
Description: FIGS. 1A-1D depict cooperative transactivation of the IL-1B promoter by Spi-1, C/EBPβ and IE2. FIG. 1A is a schematic of the IL-1B promoter showing two composite Spi-1-C/EBPβ binding sites in proximity to the transcription start site. The full-length promoter (HT) was spliced into a vector containing the gene reporter firefly luciferase and used in transient transfection assays in HeLa-S3 cells. FIG. 1B depicts dose-response of HT reporter to titrated Spi-1 expression vector and a fixed amount of cotransfected C/EBPβ expression vector. FIG. 1C depicts dose-response of HT reporter to titrated C/EBPβ expression vector and a fixed amount of Spi-1 expression vector. FIG. 1D depicts functional cooperativity with IE2. The HT reporter was contransfected with titrated Spi-1 expression vector (open bars) or fixed amount of C/EBPβ expression vector (checkerboard bars), or both C/EBPβ and IE2 expression vectors (hatched bars).
The data shown here are pooled from three independent experiments. […] The indicated transfection groups were con-transfected with titrated amounts of IE2 291-364 or 291-343 expression vectors. […] The experiment described by FIG. 2B is similar to that described by FIG. 2A except that wild type IE2 was also added to the indicated transfection groups. These are pooled data from three independent experiments.
• Cell Culture. HeLa cells (Strain S3) were obtained by ATCC and cultured per their recommendations. Briefly, the cells were grown in Dulbecco modified Eagle medium (DMEM) containing 10% FBS and 0.5% penicillin-streptomycin. Every three days cells were split 1:10 using Trypsin (0.25%) EDTA (0.1%) (Cellgro) to detach the cells. • Reporter Constructs and Expression Vectors. The human IL1B promoter regions (−131+12 and −59/+12 and its mutants (FIG. 1A) were generated by polymerase chain reaction (PCR) and inserted into pGL3-Basic vector (Promega) at Mlu I and BgI II or Hind III sites to construct promoter-luciferase reporter plasmids. The HCMV IE expression vectors pEQ273 and pEQ326 contain the genomic HCMV IE DNA inserted into pGEM1 vector. The plasmids expressing full-length NFIL6 and a truncated version with an internal deletion between the two Spl I restriction sites were constructed by inserting the NFIL6 cDNAs into expression vectors pcDNA3.1 or pcDNA1 (Invitrogen) (Tsukada, J., K. Saito, et al. (1994) Mol Cell Biol 14(11): 7285-97). […] Twenty-four or forty-eight hours after transfection, the activities of luciferase and β-galactosidae activity were determined (using reagents from Promega) to measure promoter activity and allow normalization of luciferase activity in each experiment, respectively. […]

Spi-1 ETS domain = target: T1, Spi-1 ETS domain (Homo sapiens, UniProt P17947); assay: GST fusion pull-down assay with radiolabeled Spi-1 ETS domain probe; assay type: binding; details: autoradiography, FIG. 5
T1 construct: made in house; host or cells: in vitro translation, rabbit reticulocyte lysate (TNT T7 Quick Coupled, Promega), 35S-methionine label
Description: (§1) Interaction of the indicated probes is retained to the control peptides IE2 291-343 and IE2 291-364.
(§2) • Cell Culture. HeLa cells (Strain S3) were obtained by ATCC and cultured per their recommendations. Briefly, the cells were grown in Dulbecco modified Eagle medium (DMEM) containing 10% FBS and 0.5% penicillin-streptomycin. Every three days cells were split 1:10 using Trypsin (0.25%) EDTA (0.1%) (Cellgro) to detach the cells. • Reporter Constructs and Expression Vectors. The human IL1B promoter regions (−131+12 and −59/+12 and its mutants (FIG. 1A) were generated by polymerase chain reaction (PCR) and inserted into pGL3-Basic vector (Promega) at Mlu I and BgI II or Hind III sites to construct promoter-luciferase reporter plasmids. The HCMV IE expression vectors pEQ273 and pEQ326 contain the genomic HCMV IE DNA inserted into pGEM1 vector. The plasmids expressing full-length NFIL6 and a truncated version with an internal deletion between the two Spl I restriction sites were constructed by inserting the NFIL6 cDNAs into expression vectors pcDNA3.1 or pcDNA1 (Invitrogen) (Tsukada, J., K. Saito, et al. (1994) Mol Cell Biol 14(11): 7285-97). The expression vector containing the bZIP region of NFIL6 was constructed by inserting a PCR-amplified fragment of NFIL6 encoding amino acids 269-345 into pcDNA3.1 (Yang, Z., N. Wara-Aswapati, et al. (2000) J Biol Chem 275(28): 21272-7). • Transfections and Reporter Gene Assays. HeLa (S3) cells were transfected with expression vectors and luciferase reporter plasmids using Effectene reagents (Qiagen Inc.). Cells were seeded into 24-well plates 24 hours before transfection. […] Expression from these vectors was confirmed by western blotting. Twenty-four or forty-eight hours after transfection, the activities of luciferase and β-galactosidae activity were determined (using reagents from Promega) to measure promoter activity and allow normalization of luciferase activity in each experiment, respectively. […] Gels were stained with SimplyBlue Safestain (Invitrogen) for protein determination and analyzed for binding using autoradiography. […]

C/EBPβ bZIP domain = target: T2, C/EBPβ bZIP domain (Homo sapiens, UniProt P17676); assay: GST fusion pull-down assay with radiolabeled C/EBPβ bZIP domain probe; assay type: binding; details: autoradiography, FIG. 5
T2 construct: PCR-amplified fragment of NFIL6 encoding amino acids 269-345 into pcDNA3.1; made in house; host or cells: in vitro translation, rabbit reticulocyte lysate (TNT T7 Quick Coupled, Promega), 35S-methionine label
Description: as §1, §2

IE2 = target: T3, IE2 (Human cytomegalovirus, UniProt P19893); assay: GST fusion pull-down assay with radiolabeled IE2 probe; assay type: binding; details: autoradiography, FIG. 5
T3 construct: made in house; host or cells: in vitro translation, rabbit reticulocyte lysate (TNT T7 Quick Coupled, Promega), 35S-methionine label
Description: as §1, §2

GFP expression vector = assay: Specificity control: expression of control GFP vector by flow cytometry in HeLa-S3 cells; assay type: cell-based; details: HeLa-S3, cotransfection, 24 hours, FIG. 4D
Description: (§3) FIGS. 4A-4D. […] FIG. 4D is another specificity control showing that a control GFP expression vector was not affected by either IE2 291-343 or IE2 291-364. HeLa-S3 cells were transfected with both a GFP expression vector and cotransfected with either E2 291-343 or IE 291-364 expression vectors and GFP expression analyzed 24 hours later by a fluorescence activated cell sorter.
(§4) Because the IE2 291-364 region was previously mapped as one of three TBP binding sites on IE2, it was possible that the inhibitory function was due to interaction with TBP. To exclude this possibility, the expression of two other genes that contain TATA boxes in their promoters were investigated. First, an observed the expression of C/EBPβ from the expression vector by western blot (FIG. 4C) was conducted. […] Second, His-tagged inhibitors were cotransfected with ev GFP and the geometric mean brightness of transfected cells measured by flow cytometry (FIG. 4D). […] It is believed that the basis for the interaction is localized to residues 315-328 of the IE2 molecule because a variant of IE2 291-364 missing the 315-328 region (delA) lacks binding to Spi-1 ETS domain in a GST fusion pull-down assay (FIG. 5).

IL-1β promoter reporter = assay: Full-length IL-1β regulatory region luciferase reporter in LPS-stimulated RAW264.7 monocytic cells; assay type: cell-based
Description: FIG. 3 depicts that IE2 291-364 fragment inhibits full-length IL-1β reporter in the monocytic cell line RAW264.7. A luciferase gene reporter was made by splicing the native IL-1β upstream fragment (XT), which contains the enhancer through promoter sequences, upstream of the luciferase gene. This was cotransfected (in titrated doses) with pCDNA 3.1/V5-His empty vector (control) or pCDNA 3.1/V5-His IE2 291-364 by calcium phosphate precipitation into RAW 264.7 cells. To activate the reporter, cells were stimulated with LPS.
FIG. 6 depicts increasing amounts of vector expressing either IE2 291-364Δ315-328 or IE2 291-364 transfected into RAW cells with full length IL-1β regulatory protein as a luciferase reporter. After transient transfection by CaPO4, RAW cell lysates were used for measurement by luminometry and results normalized to β-galactosidase activity introduced by a co-transfected β-galactosidase expression vector to control for transfection efficiency. Values for IE2 291-364Δ315-328 are reported as percentages of relative luciferase activity compared to the wild-type fragment 315-264, as shown.
To further verify the effect of IE2 291-364, a test was conducted in the RAW 264.7 cell line. […] When the RAW 264.7 cell line was treated with the bacterial cell wall product LPS, it produced IL-1β similar to what normal monocytes would do. The IE2-291-364 peptide inhibited IL-1β promoter reporter by about 50% in this system (FIG. 3).
In order to more rigorously test the inhibitory capabilities of the IE2 peptides on IL1B gene expression, a complete monocyte-specific 3.8 kbp regulatory region of the IL1B gene containing both the LPS-responsive enhancer and the cell-type specific Spi-1-dependent promoter (Shirakawa, F., K. Saito, et al. (1993). Mol Cell Biol 13(3): 1332-44) was transfected as a luciferase reporter into LPS-treated RAW264.7 monocyte cells.

C/EBPβ = assay: Specificity control: C/EBPβ expression by western blot of transfected HeLa-S3 lysates; assay type: cell-based; details: HeLa-S3 cell lysates, FIG. 4C
Description: as §3, §4

T2 sequence (P17676 269-345): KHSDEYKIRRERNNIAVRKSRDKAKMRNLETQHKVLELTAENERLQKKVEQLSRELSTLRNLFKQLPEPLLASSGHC
T3 sequence (P19893 whole entry, the tested form may be a part): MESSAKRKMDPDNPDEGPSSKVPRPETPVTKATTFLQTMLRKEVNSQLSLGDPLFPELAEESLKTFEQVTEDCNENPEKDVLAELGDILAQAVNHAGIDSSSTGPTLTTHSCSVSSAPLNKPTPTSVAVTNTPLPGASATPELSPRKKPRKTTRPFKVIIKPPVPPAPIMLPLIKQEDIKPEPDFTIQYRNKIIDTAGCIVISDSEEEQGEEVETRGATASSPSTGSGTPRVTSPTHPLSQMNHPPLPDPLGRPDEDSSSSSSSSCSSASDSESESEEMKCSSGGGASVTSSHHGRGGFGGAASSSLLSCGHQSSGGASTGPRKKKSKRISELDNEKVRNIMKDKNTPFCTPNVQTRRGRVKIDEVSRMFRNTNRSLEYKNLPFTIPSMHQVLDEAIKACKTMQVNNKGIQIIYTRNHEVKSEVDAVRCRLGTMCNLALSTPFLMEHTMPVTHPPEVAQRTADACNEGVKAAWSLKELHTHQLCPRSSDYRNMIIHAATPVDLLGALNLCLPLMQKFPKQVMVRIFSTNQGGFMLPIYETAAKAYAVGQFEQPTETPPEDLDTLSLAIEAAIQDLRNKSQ

Row | Substance | inhibition of cooperative transactivation of the IL-1β promoter (IL-1β promoter) | interaction with Spi-1 ETS domain probe (Spi-1 ETS domain) | interaction with C/EBPβ bZIP domain probe (C/EBPβ bZIP domain) | interaction with IE2 probe (IE2) | effect on GFP expression from control GFP vector (GFP expression vector) | other results
1 | GFP-IE2 291-343 (SSHHGRGGFGGAASSSLLSCGHQSSGGASTGPRKKKSKRISELDNEKVRNIMK; also: GFP fusion) |  |  |  |  |  | inhibition of IL-1β promoter (HT reporter) activity by GFP fusion product (IL-1β promoter; Spi-1 and C/EBPβ transactivation, GFP-expressing cells purified by FACS, FIG. 4B): inhibition of IL-1β promoter activity
2 | IE2 291-343: hCMV IE2 protein amino acid residues 291-343 | inhibited | retained | retained | retained | not affected | 
3 | IE2 291-364: hCMV IE2 protein amino acid residues 291-364, expressed from vector (His tag or GST fusion) | inhibited | retained | retained | retained | not affected | dose dependence of inhibition of 3.8 kbp IL1B regulatory region reporter activity (IL-1β promoter reporter; LPS-treated RAW264.7, His-tagged expression vector, FIG. 6): dose-dependent inhibition; inhibition of full-length IL-1β reporter (XT) (IL-1β promoter reporter; RAW264.7, LPS stimulated, cotransfected pCDNA 3.1/V5-His IE2 291-364, FIG. 3): inhibits; inhibition of IL-1β promoter reporter (IL-1β promoter reporter; RAW 264.7 cells treated with LPS, FIG. 3): about 50%; effect on expression of C/EBPβ protein (western blot) (C/EBPβ): does not inhibit
4 | full length wild-type IE2: CMV encoded transactivator Immediate Early 2 protein, full length |  |  |  |  |  | increase of IL-1β promoter reporter activity (IL-1β promoter; full length wild-type IE2 added to Spi-1 and C/EBPβ transfection, HeLa-S3, FIG. 1D): 4-10 fold
5 | delA (SSHHGRGGFGGAASSSLLSCGHQSRISELDNEKVRNIMKDKNTPFCTPNVQTRRGRVKID; not fully specified; cysteine pairing not given here) [reference compound] |  | lacks binding; also recorded: loss of interaction | loss of interaction | loss of interaction |  | 

Source: US20070265201A1, “INHIBITORS OF IN[…] TRA[…] FROM HCMV PROTEIN IE2” (priority 2005, published 2007)
